Assay results from patent publication US10472341B2, “Bicyclic tetrahydrothiazepine derivatives useful for the treatment of neoplastic and/or infectious diseases” (APEIRON BIOLOGICS AG, priority 2015, dated 2019).

System: aCD3/aCD28-stimulated human CD4+-T-cells
Assay: IL-2 production and activation markers in aCD3/aCD28 stimulated isolated human CD4+-T-cells
Format: cell-based
Settings: IL-2 production at 3 μM compound
Description: • Buffy coat content was transferred to sterile plastic bottle and filled up to 480 ml with PBS, and distributed equally to 16×50 ml tubes (30 ml/tube) • Underlayed with ˜11 ml Lymphoprep and centrifuged 20 min (2200 rpm) • The interphase containing lymphocytes was taken off with transfer pipette, cells were washed twice with PBS and pooled to one tube to determine cell count (Coulter Diff ACT) Isolation of Immune Cell Subfractions from PBMCs by MACS • PBMCs were resuspended in MACS buffer (80 μl MACS-buffer/10^7 cells) and cells were isolated with Auto-MACS device using respective kits following manufacturer's recommendations TCR Stimulation and Measurement of T Cell Activation
Isolated T cells were plated in Xvivo medium at 1.5*10 ^5 cells per in 96 well culture plates and TCR-stimulated with anti-CD3/28 mAbs in the presence of compound as indicated. Cytokine production was determined at 24 h or 48 h following TCR stimulation in cell culture supernatants using commercially available ELISA kits (BD and eBioscience) as recommended by the manufacturer. T cell proliferation and CD25 expression (CD25-PC5 reagent purchased from Beckman Coulter) was determined by flow cytometry (Beckman-Coulter FC500) and analysed with Kaluza Software. For measurement of CD69 expression, isolated CD4 and CD8 T cells were plated in Xvivo medium at […] per in 96 well culture plates and TCR-stimulated with anti-CD3/28 mAbs in the presence of compound. CD69 expression was determined at 24 h following TCR stimulation by flow cytometry (CD4eF450, CD8APCeF780 and CD69-PC7 reagent purchased from eBioscience) and analysed with Kaluza Software.
Buffy coats were obtained from Austrian Red Cross, diluted 3 fold with PBS and layered onto an isotonic Ficoll separating solution d=1.077 g/m in 50 ml centrifuge tubes. The tubes were centrifuged at 914 g for 25 min at room temperature with the brakes off. The PBMC layer was removed and washed twice with ice-cold PBS. CD4 T cells were isolated using CD4 microbeads (Milteny) and the AutoMACS device following manufacturer's instructions.
Compound examples of the present invention were classified according to the following activity criteria and are listed in Table 4a: • Activity Class A: IL-2 production at 3 μM compound concentration >10 ng/mL • Activity Class B: IL-2 production at 3 μM compound concentration between 2-10 ng/mL • Activity Class C: IL-2 production at 3 μM compound concentration between 2-fold increase as compared to mean IL-2 production of stimulated cells in the absence of compounds and <2 ng/mL

| Structure (SMILES) | Activity Class CD4+ |
| --- | --- |
| Cl.N[C@H]1CSc2ccc(C(=O)NCc3ccc(F)cc3)cc2N(Cc2ccc(-c3csnn3)cc2)C1=O [Example 32, (3R)-3-amino-N-[(4-fluorophenyl)methyl]-4-oxo-5-{[4-(1,2,3-thiadiazol-4-yl)phenyl]-methyl}-2,3,4,5-tetrahydro-1,5-benzothiazepine-7-carboxamide hydrochloride] | C (IL-2 production at 3 μM compound concentration between 2-fold increase as compared to mean IL-2 production of stimulated cells in the absence of compounds and <2 ng/mL) |
| N[C@H]1CSc2ccc(C(=O)NCC3CCOCC3)cc2N(Cc2ccc(F)cc2)C1=O [Example 45, (3R)-3-amino-5-[(4-fluorophenyl)methyl]-N-(oxan-4-ylmethyl)-4-oxo-2,3,4,5-tetrahydro-1,5-benzothiazepine-7-carboxamide] | C (IL-2 production at 3 μM compound concentration between 2-fold increase as compared to mean IL-2 production of stimulated cells in the absence of compounds and <2 ng/mL) |
| CCCCNC(=O)c1ccc2c(c1)N(Cc1ccc(C(N)=O)cc1)C(=O)[C@@H](N)CS2.Cl [Example 47, (3R)-3-amino-N-butyl-5-[(4-carbamoylphenyl)methyl]-4-oxo-2,3,4,5-tetrahydro-1,5-benzothiazepine-7-carboxamide hydrochloride] | C (IL-2 production at 3 μM compound concentration between 2-fold increase as compared to mean IL-2 production of stimulated cells in the absence of compounds and <2 ng/mL) |
| C[C@H](NC(=O)c1ccc2c(c1)N(Cc1ccc(Cl)cc1)C(=O)[C@@H](N)CS2)c1ccc(F)cc1.Cl [Example 49, (3R)-3-amino-5-[(4-chlorophenyl)methyl]-N-[(1S)-1-(4-fluorophenyl)ethyl]-4-oxo-2,3,4,5-tetrahydro-1,5-benzothiazepine-7-carboxamide hydrochloride] | C (IL-2 production at 3 μM compound concentration between 2-fold increase as compared to mean IL-2 production of stimulated cells in the absence of compounds and <2 ng/mL) |
| Cl.N[C@H]1CSc2cc(F)c(C(=O)NNc3ccc(F)cc3)cc2N(Cc2ccc(Cl)cc2)C1=O [Example 52, (3R)-3-amino-5-[(4-chlorophenyl)methyl]-8-fluoro-N′-(4-fluorophenyl)-4-oxo-2,3,4,5-tetrahydro-1,5-benzothiazepine-7-carbohydrazide hydrochloride] | C (IL-2 production at 3 μM compound concentration between 2-fold increase as compared to mean IL-2 production of stimulated cells in the absence of compounds and <2 ng/mL) |
| CC(C)CONC(=O)c1ccc2c(c1)N(Cc1ccc(Cl)cc1)C(=O)[C@@H](N)CS2.Cl [Example 62, (3R)-3-amino-5-[(4-chlorophenyl)methyl]-N-(2-methylpropoxy)-4-oxo-2,3,4,5-tetrahydro-1,5-benzothiazepine-7-carboxamide hydrochloride] | C (IL-2 production at 3 μM compound concentration between 2-fold increase as compared to mean IL-2 production of stimulated cells in the absence of compounds and <2 ng/mL) |
| Cl.N[C@H]1CS(=O)(=O)c2cc(F)c(C(=O)NOc3ccccc3)cc2N(Cc2ccc(Cl)cc2)C1=O [Example 76, (3R)-3-amino-5-[(4-chlorophenyl)methyl]-8-fluoro-1,1,4-trioxo-N-phenoxy-2,3,4,5-tetrahydro-1λ^6,5-benzothiazepine-7-carboxamide hydrochloride] | C (IL-2 production at 3 μM compound concentration between 2-fold increase as compared to mean IL-2 production of stimulated cells in the absence of compounds and <2 ng/mL) |
| CC(C)CONC(=O)c1ccc2c(c1)N(Cc1ccc(Cl)cc1)C(=O)[C@@H](N)CS2(=O)=O.Cl [Example 81, (3R)-3-amino-5-[(4-chlorophenyl)methyl]-N-(2-methylpropoxy)-1,1,4-trioxo-2,3,4,5-tetrahydro-1λ^6,5-benzothiazepine-7-carboxamide hydrochloride] | C (IL-2 production at 3 μM compound concentration between 2-fold increase as compared to mean IL-2 production of stimulated cells in the absence of compounds and <2 ng/mL) |
| CCCONC(=O)c1ccc2c(c1)N(Cc1ccc(Cl)cc1)C(=O)[C@@H](N)CS2(=O)=O.Cl [Example 82, (3R)-3-amino-5-[(4-chlorophenyl)methyl]-1,1,4-trioxo-N-propoxy-2,3,4,5-tetrahydro-1λ^6,5-benzothiazepine-7-carboxamide hydrochloride] | C (IL-2 production at 3 μM compound concentration between 2-fold increase as compared to mean IL-2 production of stimulated cells in the absence of compounds and <2 ng/mL) |
| Cl.N[C@H]1CS(=O)(=O)c2ccc(C(=O)NOC3CCCCC3)cc2N(Cc2ccc(Cl)cc2)C1=O [Example 90, (3R)-3-amino-5-[(4-chlorophenyl)methyl]-N-(cyclohexyloxy)-1,1,4-trioxo-2,3,4,5-tetrahydro-1λ^6,5-benzothiazepine-7-carboxamide hydrochloride] | A (IL-2 production at 3 μM compound concentration >10 ng/mL) |
| Cl.N[C@H]1CS(=O)(=O)c2ccc(C(=O)NOCC3CCCCC3)cc2N(Cc2ccc(Cl)cc2)C1=O [Example 91, (3R)-3-amino-5-[(4-chlorophenyl)methyl]-N-(cyclohexylmethoxy)-1,1,4-trioxo-2,3,4,5-tetrahydro-1λ^6,5-benzothiazepine-7-carboxamide hydrochloride] | B (IL-2 production at 3 μM compound concentration between 2-10 ng/mL) |
| CC(C)(C)ONC(=O)c1ccc2c(c1)N(Cc1ccc(Cl)cc1)C(=O)[C@@H](N)CS2(=O)=O.Cl [Example 97, (3R)-3-amino-N-(tert-butoxy)-5-[(4-chlorophenyl)methyl]-1,1,4-trioxo-2,3,4,5-tetrahydro-1λ^6,5-benzothiazepine-7-carboxamide hydrochloride] | C (IL-2 production at 3 μM compound concentration between 2-fold increase as compared to mean IL-2 production of stimulated cells in the absence of compounds and <2 ng/mL) |
| CCCCNC(=O)c1cc2c(cc1F)SC[C@H](N)C(=O)N2Cc1ccc2ccccc2n1.Cl.Cl [Example 112, (3R)-3-amino-N-butyl-8-fluoro-4-oxo-5-(quinolin-2-ylmethyl)-2,3,4,5-tetrahydro-1,5-benzothiazepine-7-carboxamide dihydrochloride] | C (IL-2 production at 3 μM compound concentration between 2-fold increase as compared to mean IL-2 production of stimulated cells in the absence of compounds and <2 ng/mL) |
| COc1ccc(CNC(=O)c2cc3c(cc2F)SC[C@H](NCCCCCNC(=O)OC(C)(C)C)C(=O)N3Cc2ccc(Cl)cc2)cc1 [Example 115, tert-butyl N-(5-{[(3R)-5-[(4-chlorophenyl)methyl]-8-fluoro-7-{[(4-methoxyphenyl)methyl]carbamoyl}-4-oxo-2,3,4,5-tetrahydro-1,5-benzothiazepin-3-yl]amino}pentyl)carbamate] | C (IL-2 production at 3 μM compound concentration between 2-fold increase as compared to mean IL-2 production of stimulated cells in the absence of compounds and <2 ng/mL) |
